We go through 20 compounds from US9938261B2, “Heterocyclic compounds and methods of use thereof” (AMBIT BIOSCIENCES CORPORATION, priority 2011, dated 2018).

One test addresses T1, FLT3 (Homo sapiens, UniProt P36888).
T1 construct: made in house
T1 sequence (P36888 27-993): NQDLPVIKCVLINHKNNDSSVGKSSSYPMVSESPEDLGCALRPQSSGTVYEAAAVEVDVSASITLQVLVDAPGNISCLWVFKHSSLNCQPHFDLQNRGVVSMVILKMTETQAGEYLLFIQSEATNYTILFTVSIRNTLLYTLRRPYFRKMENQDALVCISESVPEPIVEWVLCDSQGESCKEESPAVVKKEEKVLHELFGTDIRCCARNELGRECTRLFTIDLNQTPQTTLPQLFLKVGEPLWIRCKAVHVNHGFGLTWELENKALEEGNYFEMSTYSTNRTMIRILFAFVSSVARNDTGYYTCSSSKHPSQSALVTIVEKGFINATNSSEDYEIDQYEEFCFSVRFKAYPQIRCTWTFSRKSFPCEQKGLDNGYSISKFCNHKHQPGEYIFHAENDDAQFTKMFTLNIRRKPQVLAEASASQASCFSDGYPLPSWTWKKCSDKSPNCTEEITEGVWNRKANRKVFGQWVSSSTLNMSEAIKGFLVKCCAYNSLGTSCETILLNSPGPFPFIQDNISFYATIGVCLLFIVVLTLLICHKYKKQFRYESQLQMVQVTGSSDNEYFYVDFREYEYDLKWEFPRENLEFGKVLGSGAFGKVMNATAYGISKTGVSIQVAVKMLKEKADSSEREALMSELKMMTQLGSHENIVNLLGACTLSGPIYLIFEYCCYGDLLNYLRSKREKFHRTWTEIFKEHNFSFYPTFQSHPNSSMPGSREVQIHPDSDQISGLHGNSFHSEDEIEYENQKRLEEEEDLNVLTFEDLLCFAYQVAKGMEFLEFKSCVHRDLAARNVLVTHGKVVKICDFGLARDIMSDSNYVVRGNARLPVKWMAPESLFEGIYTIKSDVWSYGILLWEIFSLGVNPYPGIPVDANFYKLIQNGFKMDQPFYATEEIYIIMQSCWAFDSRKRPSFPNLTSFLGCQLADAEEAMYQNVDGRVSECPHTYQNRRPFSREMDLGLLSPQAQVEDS
Briefly: Competition binding assay, FLT3 Kd. To be noted: competition binding. The method, boiled down:
(§1)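 Kinases as T7-phage fusions or HEK-293-expressed DNA-tagged constructs competed against immobilized biotinylated ligand on streptavidin beads, 1 h at room temperature in binding buffer. Bound kinase eluted and quantified by qPCR; Kd from eleven-point threefold dilution series.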

In a further test the target is T2, PDGFRβ (Homo sapiens, UniProt P09619).
T2 construct: made in house
T2 sequence (P09619 33-1106): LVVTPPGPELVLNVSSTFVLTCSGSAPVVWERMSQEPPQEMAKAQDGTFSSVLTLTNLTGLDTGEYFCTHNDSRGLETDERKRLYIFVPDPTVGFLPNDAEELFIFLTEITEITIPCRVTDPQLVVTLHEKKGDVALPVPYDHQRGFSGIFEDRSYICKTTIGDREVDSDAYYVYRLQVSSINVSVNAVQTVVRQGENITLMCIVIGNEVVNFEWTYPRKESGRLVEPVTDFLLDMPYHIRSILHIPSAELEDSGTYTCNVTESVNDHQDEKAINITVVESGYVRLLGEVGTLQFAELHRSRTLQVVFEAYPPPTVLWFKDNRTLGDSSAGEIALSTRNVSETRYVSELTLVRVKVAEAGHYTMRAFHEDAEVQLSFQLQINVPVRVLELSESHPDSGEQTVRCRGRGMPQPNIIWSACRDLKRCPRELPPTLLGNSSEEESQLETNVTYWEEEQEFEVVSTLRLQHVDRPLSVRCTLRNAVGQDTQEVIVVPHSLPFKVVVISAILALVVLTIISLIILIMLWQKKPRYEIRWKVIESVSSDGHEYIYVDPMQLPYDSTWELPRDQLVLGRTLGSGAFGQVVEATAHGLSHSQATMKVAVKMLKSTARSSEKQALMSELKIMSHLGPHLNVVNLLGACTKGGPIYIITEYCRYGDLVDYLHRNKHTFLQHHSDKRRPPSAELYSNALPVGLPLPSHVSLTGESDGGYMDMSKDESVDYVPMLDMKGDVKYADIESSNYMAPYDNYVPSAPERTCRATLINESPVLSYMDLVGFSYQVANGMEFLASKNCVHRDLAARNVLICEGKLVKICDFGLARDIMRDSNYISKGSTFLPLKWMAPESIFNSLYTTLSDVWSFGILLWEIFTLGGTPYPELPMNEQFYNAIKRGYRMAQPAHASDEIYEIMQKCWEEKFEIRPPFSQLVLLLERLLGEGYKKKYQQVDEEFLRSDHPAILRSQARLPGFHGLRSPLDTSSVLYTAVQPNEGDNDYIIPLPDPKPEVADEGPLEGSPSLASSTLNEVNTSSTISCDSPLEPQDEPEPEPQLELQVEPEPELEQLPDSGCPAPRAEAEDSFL
The experiment in a line: Competition binding assay, PDGFRβ Kd. Conditions: competition binding. In outline:
as §1

For test [1], the target named is kinase panel containing either 386 or 392 distinct kinases. The experiment in a line: Kinase selectivity score S10 from competition binding panel. To be noted: 10 μM, panel of 386 or 392 distinct kinases. In outline:
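S10 is the number of kinases with percent-of-control under 10, divided by all distinct wild-type kinases tested, from a single 10 μM concentration. Binding measured by qPCR of kinase recovered from ligand-coated beads after 1 h equilibrium at room temperature; kinases were phage fusions or DNA-tagged HEK-293 products.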

pKd: −log10 of the molar value.

The term pKd denotes −log10 of the Kd, conventionally taken in molar units. High values mean a small Kd, low ones a large Kd. `O[C@@H]1CCCC[C@H]1Nc1nc2ccc(Cn3cnc4cc(C(F)(F)F)ccc43)cc2s1` [Example 130, (1R,2R)-2-((6-((5-(trifluoromethyl)-1H-benzo[d]imidazol-1-yl)methyl)benzo[d]thiazol-2-yl)amino)cyclohexanol]: the results for the pKd at FLT3 and on PDGFRβ were 5.30 to 6.00 and at least 7.30, respectively. Moreover, the “Kinase specificity S(10)” value in test [1] is on record as “A (A≤0.01)”.

Regarding `CS(=O)(=O)c1ccc2ncn(Cc3ccc4nc(N[C@@H]5CCCC[C@H]5O)sc4c3)c2c1` [Example 113, (1R,2R)-2-((6-((6-(methylsulfonyl)-1H-benzo[d]imidazol-1-yl)methyl)benzo[d]thiazol-2-yl)amino)cyclohexanol], the negative-log Kd (pKd) was 5.30 to 6.00 at FLT3 and below 5.70 on PDGFRβ. In test [1], the “Kinase specificity S(10)” value is given as “A (A≤0.01)”.

Take `O[C@@H]1CCCC[C@H]1Nc1nc2ccc(Cn3cnc4cc(-n5ccnc5)ccc43)cc2s1` [Example 226, (1R,2R)-2-((6-((5-(1H-imidazol-1-yl)-1H-benzo[d]imidazol-1-yl)methyl)benzo[d]thiazol-2-yl)amino)cyclohexanol]: the pKd on FLT3 was 6.00 to 6.70; at PDGFRβ, at least 7.30. For the same compound, the “Kinase specificity S(10)” value in test [1] is “B (0.01<B≤0.02)”.

As to `N#Cc1ccn2c(Cc3ccc4nc(N[C@@H]5CCCC[C@H]5O)sc4c3)cnc2c1` [Example 117, 3-((2-(((1R,2R)-2-hydroxycyclohexyl)amino)benzo[d]thiazol-6-yl)methyl)imidazo[1,2-a]pyridine-7-carbonitrile], the results for the pKd at FLT3 and at PDGFRβ were below 5.30 and 6.30 to 7.30, respectively. For the same compound, in test [1], the “Kinase specificity S(10)” value was “A (A≤0.01)”.

For the compound `OCc1ccc2ncc(Cc3ccc4nc(N[C@@H]5CCCC[C@H]5O)sc4c3)n2n1` [Example 144, (1R,2R)-2-((6-((6-(hydroxymethyl)imidazo[1,2-b]pyridazin-3-yl)methyl)benzo[d]thiazol-2-yl)amino)cyclohexanol], the pKd on FLT3 is 6.00 to 6.70; on PDGFRβ, 6.30 to 7.30. The “Kinase specificity S(10)” value in test [1] is “B (0.01<B≤0.02)”.

For `C=C(c1ccc2c(c1)ncn2Cc1ccc2nc(N[C@@H]3CCCC[C@H]3O)sc2c1)C(F)(F)F` [Example 175, (1R,2R)-2-((6-((5-(3,3,3-trifluoroprop-1-en-2-yl)-1H-benzo[d]imidazol-1-yl)methyl)benzo[d]thiazol-2-yl)amino)cyclohexanol], the results for the pKd on FLT3 and at PDGFRβ were 6.00 to 6.70 and 6.30 to 7.30, respectively. Also, the “Kinase specificity S(10)” value in test [1] was “A (A≤0.01)”.

As to `O[C@H]1CCCC[C@H]1Nc1nc2ccc(Cn3cnc4cc(F)cnc43)cc2s1` [Example 162, (1S,2R)-2-((6-((6-fluoro-3H-imidazo[4,5-b]pyridin-3-yl)methyl)benzo[d]thiazol-2-yl)amino)cyclohexanol], the pKd was 5.30 to 6.00 at FLT3 and 6.30 to 7.30 at PDGFRβ. Besides, in test [1], the “Kinase specificity S(10)” value is given as “A (A≤0.01)”.

Consider `N#Cc1ccc2c(c1)ncn2Cc1ccc2nc(N[C@@H]3CCCC[C@H]3O)sc2c1` [Example 108, 1-((2-(((1R,2R)-2-hydroxycyclohexyl)amino)benzo[d]thiazol-6-yl)methyl)-1H-benzo[d]imidazole-5-carbonitrile], for which the pKd at FLT3 is below 5.30; on PDGFRβ, 5.70 to 6.30. Besides, the “Kinase specificity S(10)” value in test [1] is “A (A≤0.01)”.

For `O=c1c(N2CCOCC2)nccn1Cc1ccc2nc(N[C@@H]3CCCC[C@H]3O)sc2c1` [Example 222, 1-((2-(((1R,2R)-2-hydroxycyclohexyl)amino)benzo[d]thiazol-6-yl)methyl)-3-morpholinopyrazin-2(1H)-one], the pKd at FLT3 was below 5.30; on PDGFRβ it was 5.70 to 6.30. Moreover, the “Kinase specificity S(10)” value in test [1] is given as “A (A≤0.01)”.

For `O[C@@H]1CCCC[C@H]1Nc1nc2ccc(Cc3cnc4cccnn34)cc2o1` [Example 142, (1R,2R)-2-((6-(imidazo[1,2-b]pyridazin-3-ylmethyl)benzo[d]oxazol-2-yl)amino)cyclohexanol], the values for the pKd on FLT3 and on PDGFRβ were at least 6.70 and at least 7.30, respectively. Moreover, in test [1], the “Kinase specificity S(10)” value is recorded as “C (C>0.02)”.

For the compound `O[C@@H]1[C@H](O)CCC[C@H]1Nc1nc2ccc(Cc3cnc4cc(-n5cccn5)ccn34)cc2s1` [Example 229, (1R,2S,3R)-3-((6-((7-(1H-pyrazol-1-yl)imidazo[1,2-a]pyridin-3-yl)methyl)benzo[d]thiazol-2-yl)amino)cyclohexane-1,2-diol], the pKd on FLT3 was 6.00 to 6.70; at PDGFRβ, at least 7.30. In test [1], the “Kinase specificity S(10)” value is “A (A≤0.01)”.

Turning to `N#Cc1cnc2c(c1)ncn2Cc1ccc2nc(N[C@@H]3CCCC[C@H]3CO)sc2c1` [Example 140, 3-((2-(((1R,2R)-2-(hydroxymethyl)cyclohexyl)amino)benzo[d]thiazol-6-yl)methyl)-3H-imidazo[4,5-b]pyridine-6-carbonitrile], the pKd at FLT3 was below 5.30; at PDGFRβ it was 6.30 to 7.30. Also, in test [1], the “Kinase specificity S(10)” value is “A (A≤0.01)”.

For the compound `COc1ccc2ncn(Cc3ccc4nc(N[C@@H]5CCCC[C@H]5O)oc4c3)c2c1` [Example 152, (1R,2R)-2-((6-((6-methoxy-1H-benzo[d]imidazol-1-yl)methyl)benzo[d]oxazol-2-yl)amino)cyclohexanol], the pKd at FLT3 is at least 6.70; at PDGFRβ it was 6.30 to 7.30. In test [1], the “Kinase specificity S(10)” value is “B (0.01<B≤0.02)”.

As for `COc1ccc2ncc(Cc3ccc4nc(N[C@@H]5CCCC[C@H]5O)sc4c3)n2n1` [Example 150, (1R,2R)-2-((6-((6-methoxyimidazo[1,2-b]pyridazin-3-yl)methyl)benzo[d]thiazol-2-yl)amino)cyclohexanol], the pKd was 6.00 to 6.70 at FLT3 and 6.30 to 7.30 at PDGFRβ. Besides, the “Kinase specificity S(10)” value in test [1] is “B (0.01<B≤0.02)”.

Turning to `Cn1nnc(-c2ccc3c(c2)ncn3Cc2ccc3nc(N[C@@H]4CCC[C@@H](O)[C@H]4O)sc3c2)n1` [Example 236, (1R,2S,3R)-3-((6-((5-(2-methyl-2H-tetrazol-5-yl)-1H-benzo[d]imidazol-1-yl)methyl)benzo[d]thiazol-2-yl)amino)cyclohexane-1,2-diol], the pKd on FLT3 was 6.00 to 6.70; on PDGFRβ it was 6.30 to 7.30. Also, in test [1], the “Kinase specificity S(10)” value is on record as “A (A≤0.01)”.

Take `O=C(O)/C=C/c1ccc2c(c1)ncn2Cc1ccc2nc(N[C@@H]3CCCC[C@H]3O)sc2c1` [Example 224, (E)-3-(1-((2-(((1R,2R)-2-hydroxycyclohexyl)amino)benzo[d]thiazol-6-yl)methyl)-1H-benzo[d]imidazol-5-yl)acrylic acid]: the pKd is 6.00 to 6.70 on FLT3 and 6.30 to 7.30 at PDGFRβ. Further, the “Kinase specificity S(10)” value in test [1] is “A (A≤0.01)”.

Regarding `Cn1nnnc1-c1cnc2c(c1)ncn2Cc1ccc2nc(N[C@@H]3CCCC[C@H]3O)sc2c1` [Example 134, (1R,2R)-2-((6-((6-(1-methyl-1H-tetrazol-5-yl)-3H-imidazo[4,5-b]pyridin-3-yl)methyl)benzo[d]thiazol-2-yl)amino)cyclohexanol], the pKd at FLT3 was 6.00 to 6.70; at PDGFRβ it was at least 7.30. Further, the “Kinase specificity S(10)” value in test [1] is given as “A (A≤0.01)”.

As to `OC[C@@H]1CCCC[C@H]1Nc1nc2ccc(Cn3cnc4cc(Br)cnc43)cc2s1` [Example 133, ((1R,2R)-2-((6-((6-bromo-3H-imidazo[4,5-b]pyridin-3-yl)methyl)benzo[d]thiazol-2-yl)amino)cyclohexyl)methanol], the negative logarithm of the Kd (pKd) on FLT3 was 5.30 to 6.00; at PDGFRβ, at least 7.30. Moreover, the “Kinase specificity S(10)” value in test [1] was “A (A≤0.01)”.

`O[C@@H]1[C@H](O)CCC[C@H]1Nc1nc2ccc(Cn3cnc4cc(OC5COC5)ccc43)cc2s1` [Example 233, (1R,2S,3R)-3-((6-((5-(oxetan-3-yloxy)-1H-benzo[d]imidazol-1-yl)methyl)benzo[d]thiazol-2-yl)amino)cyclohexane-1,2-diol]: the pKd was 6.00 to 6.70 at FLT3 and at least 7.30 at PDGFRβ. Also, the “Kinase specificity S(10)” value in test [1] was “A (A≤0.01)”.

`O[C@@H]1CCCC[C@H]1Nc1nc2ccc(Cn3cnc4cc(-n5cccn5)ccc43)cc2s1` [Example 160, (1R,2R)-2-((6-((5-(1H-pyrazol-1-yl)-1H-benzo[d]imidazol-1-yl)methyl)benzo[d]thiazol-2-yl)amino)cyclohexanol]: the pKd on FLT3 is 6.00 to 6.70; on PDGFRβ it was at least 7.30. Further, the “Kinase specificity S(10)” value in test [1] is “A (A≤0.01)”.
